According to patent US20240132457A1, “3-(2-(BENZO[D]THIAZOL-2-YL)-2-(PHENYLSUFONAMIDO)ETHYL)BENZIMIDAMIDE DERIVATIVES AND RELATED COMPOUNDS AS TMPRSS2 INHIBITORS FOR THE TREATMENT OF VIRAL INFECTIONS” (INTEGERBIO, INC., priority 2020, published 2024):

Tests used:
Format in all cases: biochemical
ACE2 = ACE2 (Homo sapiens, UniProt Q9BYF1); experiment: Non-TMPRSS2 protease panel: ACE2; details: 10-dose, 3-fold from 10 μM
Procedure: (§1) Biochemical activity of compound 1 (racemic mixture, batch 1), compound 3 (racemic), compound 11, and compound 2 (enantiomer 1, batch 1) in proteases indicated in Table 21, Table 22, Table 23, and Table 24, respectively, were measured by testing the compounds in a 10-dose IC50 with a 3-fold series dilution starting at 10 μM against the proteases. The protease activities were monitored as a time-course measurement of the increase in fluorescence signal from fluorescently-labeled peptide substrate, and initial linear portion of slope (signal/min) was analyzed. The curve fits were performed when the activities at the highest concentration of compounds were less than 65%.

Kallikrein 5 = target: T1, Kallikrein 5 (Homo sapiens, UniProt Q9Y337); experiment: Non-TMPRSS2 protease panel: Kallikrein 5; details: 10-dose, 3-fold from 10 μM
T1 sequence (Q9Y337 23-293): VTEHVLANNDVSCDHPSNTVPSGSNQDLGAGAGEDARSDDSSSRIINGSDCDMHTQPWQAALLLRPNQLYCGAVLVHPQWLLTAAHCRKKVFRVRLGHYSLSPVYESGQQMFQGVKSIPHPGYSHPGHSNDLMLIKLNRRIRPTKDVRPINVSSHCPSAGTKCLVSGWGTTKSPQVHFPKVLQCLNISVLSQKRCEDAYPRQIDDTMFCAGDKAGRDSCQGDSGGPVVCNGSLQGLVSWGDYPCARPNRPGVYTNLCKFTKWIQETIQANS
Procedure: as §1

MMP 2 = target: T2, MMP 2 (Homo sapiens, UniProt P08253); experiment: Non-TMPRSS2 protease panel: MMP 2; details: 10-dose, 3-fold from 10 μM
T2 sequence (P08253 110-660): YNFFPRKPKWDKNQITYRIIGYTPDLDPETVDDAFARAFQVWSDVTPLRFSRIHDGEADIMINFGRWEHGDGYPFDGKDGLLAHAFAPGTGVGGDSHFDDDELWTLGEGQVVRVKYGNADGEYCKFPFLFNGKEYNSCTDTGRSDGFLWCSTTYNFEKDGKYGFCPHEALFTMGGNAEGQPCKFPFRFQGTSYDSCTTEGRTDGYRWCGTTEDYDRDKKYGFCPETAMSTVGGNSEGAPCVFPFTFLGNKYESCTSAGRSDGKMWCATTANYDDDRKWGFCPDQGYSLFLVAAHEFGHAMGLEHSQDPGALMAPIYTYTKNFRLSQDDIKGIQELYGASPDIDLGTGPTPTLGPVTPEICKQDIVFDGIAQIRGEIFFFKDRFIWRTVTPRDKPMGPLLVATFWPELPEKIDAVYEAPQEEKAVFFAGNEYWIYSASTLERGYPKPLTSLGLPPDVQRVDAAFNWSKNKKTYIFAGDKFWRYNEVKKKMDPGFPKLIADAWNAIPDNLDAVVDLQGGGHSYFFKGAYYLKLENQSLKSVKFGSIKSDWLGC
Procedure: as §1

MMP 7 = target: T3, MMP 7 (Homo sapiens, UniProt P09237); experiment: Non-TMPRSS2 protease panel: MMP 7; details: 10-dose, 3-fold from 10 μM
T3 sequence (P09237 95-267): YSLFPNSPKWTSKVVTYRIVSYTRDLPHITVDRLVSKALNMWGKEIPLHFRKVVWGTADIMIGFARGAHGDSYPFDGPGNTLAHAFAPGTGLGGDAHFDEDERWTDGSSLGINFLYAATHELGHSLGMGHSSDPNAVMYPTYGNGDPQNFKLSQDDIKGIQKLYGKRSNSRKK
Procedure: as §1

MMP 10 = MMP 10 (Homo sapiens, UniProt P09238); experiment: Non-TMPRSS2 protease panel: MMP 10; details: 3-fold from 10 μM
Procedure: as §1

MMP 14 = MMP 14 (Homo sapiens, UniProt P50281); experiment: Non-TMPRSS2 protease panel: MMP 14; details: 10-dose, 3-fold from 10 μM
Procedure: as §1

PLpro = target: T4, PLpro (Severe acute respiratory syndrome coronavirus 2, UniProt P0DTD1); experiment: Non-TMPRSS2 protease panel: PLpro; details: 10-dose, 3-fold from 10 μM
T4 construct: Plasma Kallikrein, Plasmin, Plpro, TACE
Procedure: as §1

Thrombin a = Thrombin a (Homo sapiens, UniProt P00734); experiment: Non-TMPRSS2 protease panel: Thrombin a; details: 10-dose, 3-fold from 10 μM
Procedure: as §1

Trypsin = experiment: Non-TMPRSS2 protease panel: Trypsin; details: 10-dose, 3-fold from 10 μM
Procedure: as §1

Tryptase b2 = Tryptase b2 (Homo sapiens, UniProt P20231); experiment: Non-TMPRSS2 protease panel: Tryptase b2; details: 10-dose, 3-fold from 10 μM
Procedure: as §1

Sequence of Tryptase b2 (P20231 31-275): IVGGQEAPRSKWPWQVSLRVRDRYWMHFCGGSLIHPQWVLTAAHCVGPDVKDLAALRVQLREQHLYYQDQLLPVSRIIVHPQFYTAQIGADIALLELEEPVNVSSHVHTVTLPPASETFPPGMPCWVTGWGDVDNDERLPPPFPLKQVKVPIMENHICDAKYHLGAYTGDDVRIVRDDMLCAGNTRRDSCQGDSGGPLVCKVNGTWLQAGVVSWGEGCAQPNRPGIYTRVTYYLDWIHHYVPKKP
Sequence of MMP 10 (P09238 99-476): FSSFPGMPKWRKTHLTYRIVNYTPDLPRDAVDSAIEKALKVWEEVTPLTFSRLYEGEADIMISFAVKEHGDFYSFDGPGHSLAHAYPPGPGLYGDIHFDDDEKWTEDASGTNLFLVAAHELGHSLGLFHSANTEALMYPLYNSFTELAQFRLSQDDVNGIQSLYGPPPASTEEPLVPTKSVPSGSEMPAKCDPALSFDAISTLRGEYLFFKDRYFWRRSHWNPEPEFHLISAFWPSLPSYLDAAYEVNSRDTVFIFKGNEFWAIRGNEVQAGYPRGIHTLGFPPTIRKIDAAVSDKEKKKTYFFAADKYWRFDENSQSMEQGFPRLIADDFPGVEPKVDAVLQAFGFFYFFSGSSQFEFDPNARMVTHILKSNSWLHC
Sequence of ACE2 (Q9BYF1 18-805): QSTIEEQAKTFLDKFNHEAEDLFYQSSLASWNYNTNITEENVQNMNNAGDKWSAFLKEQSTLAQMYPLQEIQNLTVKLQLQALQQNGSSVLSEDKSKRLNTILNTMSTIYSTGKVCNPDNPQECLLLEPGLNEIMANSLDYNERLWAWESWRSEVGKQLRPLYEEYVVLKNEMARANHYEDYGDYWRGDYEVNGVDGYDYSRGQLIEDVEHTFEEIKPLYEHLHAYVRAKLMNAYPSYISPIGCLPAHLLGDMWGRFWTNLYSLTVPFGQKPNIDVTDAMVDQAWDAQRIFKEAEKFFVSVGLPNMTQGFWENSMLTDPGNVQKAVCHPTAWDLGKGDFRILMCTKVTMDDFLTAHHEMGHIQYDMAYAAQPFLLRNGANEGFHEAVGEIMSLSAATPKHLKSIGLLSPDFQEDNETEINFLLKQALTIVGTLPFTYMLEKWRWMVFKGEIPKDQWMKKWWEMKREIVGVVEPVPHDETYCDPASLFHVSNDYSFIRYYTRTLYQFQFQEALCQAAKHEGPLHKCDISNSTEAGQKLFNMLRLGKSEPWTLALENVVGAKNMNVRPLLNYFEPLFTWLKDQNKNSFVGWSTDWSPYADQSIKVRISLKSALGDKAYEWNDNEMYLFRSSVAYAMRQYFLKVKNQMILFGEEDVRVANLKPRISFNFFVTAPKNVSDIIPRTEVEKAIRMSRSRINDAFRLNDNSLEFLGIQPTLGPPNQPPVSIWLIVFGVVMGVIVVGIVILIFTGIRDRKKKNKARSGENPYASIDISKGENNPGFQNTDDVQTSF

| SMILES | IC50 (ACE2) [µM] | IC50 (Kallikrein 5) [µM] | IC50 (MMP 2) [µM] | IC50 (MMP 7) [µM] | IC50 (MMP 10) [µM] | IC50 (MMP 14) [µM] | IC50 (PLpro) [µM] | IC50 (Thrombin a) [µM] | IC50 (Trypsin) [µM] | IC50 (Tryptase b2) [µM] |
| --- | --- | --- | --- | --- | --- | --- | --- | --- | --- | --- |
| N=C(N)c1cccc(CC(NS(=O)(=O)c2ccccc2)c2nc3ccccc3s2)c1 (racemic) [1 (racemic mixture, batch 1), 3-[2-Benzenesulfonamido-2-(1,3-benzothiazol-2-yl)ethyl]benzene-1-carboximidamide] | > 10 | > 10 | > 10 | > 10 | > 10 | > 10 | > 10 | > 10 | > 10 | > 10 |
| N=C(N)c1cccc(CC(NS(=O)(=O)c2cccc(-c3ccc(Cl)cc3Cl)c2)c2nc3ccccc3s2)c1 (racemic) [3 (racemic), 3-[2-(1,3-Benzothiazol-2-yl)-2-{2′,4′-dichloro-[1,1′-biphenyl]-3-sulfonamido}ethyl]benzene-1-carboximidamide] | > 10 | > 10 | < 10 | > 10 | > 10 | < 10 | > 10 | < 10 | < 10 | < 10 |
| N=C(N)c1cccc(C[C@H](NS(=O)(=O)c2ccccc2)c2nnco2)c1 (single isomer, unassigned) [Compound 2 (enantiomer 1, batch 1), 3-[2-Benzenesulfonamido-2-(1,3,4-oxadiazol-2-yl)ethyl]benzene-1-carboximidamide] | > 10 | > 10 | > 10 | > 10 | > 10 | > 10 | > 10 | > 10 | > 10 | > 10 |
| COc1ccc2nc(C(Cc3cccc(C(=N)N)c3)NS(=O)(=O)c3ccccc3)sc2c1 (stereo not shown) [Compound 11, 3-[2-Benzenesulfonamido-2-(6-methoxy-1,3-benzothiazol-2-yl)ethyl]benzene-1-carboximidamide] | > 10 | > 10 | > 10 | > 10 | > 10 | > 10 | > 10 | > 10 | > 10 | > 10 |
